Reference: EP0920324B1, “PURE BIOLOGICALLY ACTIVE COLISTIN, ITS COMPONENTS AND A COLISTIN FORMULATION FOR TREATMENT OF PULMONARY INFECTIONS” (PATHOGENESIS CORPORATION, priority 1996, dated 1998)
Where a SMILES comes first, the peptide text is derived from it. Bridges are numbered along the chain shown (N, C = ends). [ ]: non-standard residue; d: D form. The star is where a group is joined. Octanoyl(6-Me) = CCC(C)CCCCC(=O)*; Dab = NCC[CH](N)C(=O)O

What was measured:
[1] = Solution pH monitored over time after dissolution; type: physicochemical; settings: 10.0, 15.0 and 20.0 mg/ml in water
Description: These values correspond to concentrations of 3.7 mg/ml, 5.6 mg/ml and 7.4 mg/ml colistin base equivalent. Solution pH was monitored continuously at various times from 1 minute to 180 minutes and pH values and times were recorded.
Determination of component IV stability at physiologic pH was made by dissolving purified colistin component IV sulfate or hydrochloride at a concentration of 20 mg/ml in sterile water containing 120 mM NaCl. The solution was mixed and pH was monitored. A 10 N NaOH solution was used to adjust the solution pH to 6.95-7.00. Results are seen in Figure 16.
These values correspond to concentrations of 3.7 mg/ml, 5.6 mg/ml and 7.4 mg/ml colistin base equivalent. Solution pH was then monitored continuously using a Beckman Phi-10 pH meter fitted with a Beckman Futura Plus combination electrode calibrated at pH 4.0 and 7.0 as per manufacturer's instructions prior to use. At various times from 1 minute to 180 minutes, pH values and times were recorded.

[2] = Jet nebulization (Pari LC Jet nebulizer), aerosol characterized by laser diffraction particle analyzer; type: physicochemical
Description: Colistin component IV sulfate was dissolved in 120 mM sodium chloride, and the pH was adjusted to 7.0 with 1 molar sodium hydroxide.
Four ml of solution to be nebulized was placed in a Pari LC Jet nebulizer fitted with a Pulmonaide Compressor (DeVilbiss Model 5650D) with an air flow rate of 4-6 liters/minute. Aerosols generated are characterized by passing through a laser diffraction particle analyzer (Malvern Mastersizer X). Each formulation was analyzed multiple times to determine reproducibility of results, which were expressed as total obscuration time, mass median average diameter, and respirable fraction.
Results are shown in Figure 18, which is a comparison of the-times required for aerosolization of 4 mL of the three solutions. The two drug solutions were analyzed three times, and saline was analyzed four times. Bars show standard deviations of measurements.
Colistin component IV sulfate or hydrochloride formulations were as described above in Example 15.
Four ml of solution to be nebulized was placed in a Pari LC Jet nebulizer fitted with a Pulmonaide Compressor, DeVilbiss Model 5650D, with an air flow rate of 4-6 liters/minute. Aerosol generated was characterized by passing through a Malvern Mastersizer X laser diffraction particle analyzer. Each formulation was analyzed multiple times to determine reproducibility of results, which were expressed as total obscuration time, mass median particle diameter, and respirable fraction.
Mass median particle diameters were expressed as average ± standard deviation (n) for aerosols.
Average respirable fractions were calculated as average percentage of particles ranging from 1 micron to 6 microns in diameter within the aerosol over time.

[3] = human, in vivo; cited from earlier work
[4] = human, in vivo, iv; cited from earlier work
[5] = system: Pseudomonas aeruginosa; assay: Time kill kinetic studies (bactericidal activity); type: cell-based
Description: Henry D. Isenberg, ASM, Washington, DC (1992). The exact procedure is described in Example 14.
Briefly, tests were similar to those used for determining MICs, except that the final test volume was larger (10 mL) to allow sampling at various time points. […] Cultures were incubated at 37°C. At initial set-up and at various time-points, cultures were plated, with or without further dilution, onto sheep blood agar plates. Plates were incubated for 18-24 hours, and the number of CFU/mL was determined and plotted to determine the percentage of surviving organisms and the time required to achieve 99.9% killing. Results are seen in Figure 15.
Colony-forming unit (CFU) per ml were determined and plotted against drug exposure time in hours.
Time kill kinetic studies were performed as described in (Antimicrobial Susceptibility Testing, Section 5.16. Tests to assess bactericidal activity, in Clinical Microbiology Procedure Handbook (supra).
Tests were set in the same way used for determining MICs (Example 13), except that the final test volume was larger (10 mL) to allow sampling at various time points. Cultures were incubated at 37°C. At initial set-up and at various desired time-points, cultures were sampled and plated (with or without further dilution) onto sheep blood agar plates. Plates were incubated for 18-24 hours, and the number of CFU/mL was determined and plotted to determine the percentage of surviving organisms and the time required to achieve 99.9% killing.

[6] = human, in vivo, 1 h; cited from earlier work
[7] = Gravimetric titration with HCl to determine pKa
[8] = average ± standard deviation, n = 3, 20 mg/ml solutions

Compound | pH of solution within 3 minutes [1] | mean aerosolization time ([2]; 4 mL of 20 mg/ml solution, colistin component IV sulfate in 120 mM NaCl, isotonic, pH balanced, colimycin in 1/4 N saline, n = 3) | average respirable fraction (particles ranging from 1 micron to 6 microns in diameter) [2, 8] | mass median particle diameter of the aerosol [2, 8] | patients reporting bronchoconstriction response as chest tightness [3] | occurrence of nephrotoxicity symptoms [4] | occurrence of neurotoxicity symptoms [4] | eradication of the Pseudomonas aeruginosa organism ([5]; 8 µg/mL, at 4 hours of testing) | killing of test organism ([5]; 16 µg/mL, at 3 hours) | time at which over 5 logs killing was shown ([5]; 64µg/mL) | concentration required for a similar level of killing (over 5 logs within 2 hours) ([5]; freshly dissolved) | drug converted to colistin in an hour [6] | pKa ([7]; free base suspended in deionized water, titrated with 1.21 M HCl) | pKa ([7]; water)
colimycin | > 7.5 | 10.53 min | 58.77 ± 2.03 percentage | 4.11 ± 0.29 microns | approximately 65% | about 5 % cases | about 29 % cases | did not, even at 4 hours of testing, eradicate the Pseudomonas aeruginosa organism | over 5 logs | 1.5 hours | 32 µg/ml | ~3% |  | 
CCC(C)CCCCC(=O)NC(CCN)C(=O)NC(C(=O)NC(CCN)C(=O)NC1CCNC(=O)C(C(C)O)NC(=O)C(CCN)NC(=O)C(CCN)NC(=O)C(CC(C)C)NC(=O)C(CC(C)C)NC(=O)C(CCN)NC1=O)C(C)O (centres unmarked) [colistin component IV] ({Octanoyl(6-Me)}-[Dab]T[Dab][Dab][Dab]LL[Dab][Dab]T; lactam 4-C; configuration not given here) |  |  |  |  |  |  |  |  |  |  |  |  | approximately 9.0 | ~9
